Experimental data published in patent US20180099931A1 (AbbVie S.à.r.l., priority 2016, published 2018).
Read-outs that look alike come from different tables or passages of the source.

Target: T1, F508delCFTR (Homo sapiens, UniProt P13569, DEL508-508)
T1 construct: expressed in transfected cells; host or cells: CFBE41o- human lung-derived epithelial cells (CFBE4lo-F508delCFTR-HRP), doxycycline-inducible
Assay: Cell Surface Expression-Horse Radish Peroxidase (CSE-HRP) Assay;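 on Maximum % activity (with co-corrector): co-corrector and positive control are both the same reference corrector at 2 µM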;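 on Maximum % activity (without co-corrector): percent of the 2 µM on-plate positive control corrector response above DMSO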
Assay type: cell-based
Conditions: for Emax / Maximum % activity (with co-corrector): maximum at any tested concentration, normalized to on-plate positive control; for Emax: read-out: Maximum % activity (without co-corrector)

[1] = test compound without co-corrector
[2] = test compound without co-corrector, read-out: EC50 (without co-corrector)
[3] = with co-corrector (2 μM of 3-[(2R,4R)-4-({[1-(2,2-difluoro-1,3-benzodioxol-5-yl)cyclopropyl]carbonyl}amino)-7-methoxy-3,4-dihydro-2H-chromen-2-yl]benzoic acid)
[4] = with co-corrector (2 μM of 3-[(2R,4R)-4-({[1-(2,2-difluoro-1,3-benzodioxol-5-yl)cyclopropyl]carbonyl}amino)-7-methoxy-3,4-dihydro-2H-chromen-2-yl]benzoic acid), read-out: EC50 (with co-corrector)

T1 sequence (P13569 with tags, fused parts or gaps DEL508-508): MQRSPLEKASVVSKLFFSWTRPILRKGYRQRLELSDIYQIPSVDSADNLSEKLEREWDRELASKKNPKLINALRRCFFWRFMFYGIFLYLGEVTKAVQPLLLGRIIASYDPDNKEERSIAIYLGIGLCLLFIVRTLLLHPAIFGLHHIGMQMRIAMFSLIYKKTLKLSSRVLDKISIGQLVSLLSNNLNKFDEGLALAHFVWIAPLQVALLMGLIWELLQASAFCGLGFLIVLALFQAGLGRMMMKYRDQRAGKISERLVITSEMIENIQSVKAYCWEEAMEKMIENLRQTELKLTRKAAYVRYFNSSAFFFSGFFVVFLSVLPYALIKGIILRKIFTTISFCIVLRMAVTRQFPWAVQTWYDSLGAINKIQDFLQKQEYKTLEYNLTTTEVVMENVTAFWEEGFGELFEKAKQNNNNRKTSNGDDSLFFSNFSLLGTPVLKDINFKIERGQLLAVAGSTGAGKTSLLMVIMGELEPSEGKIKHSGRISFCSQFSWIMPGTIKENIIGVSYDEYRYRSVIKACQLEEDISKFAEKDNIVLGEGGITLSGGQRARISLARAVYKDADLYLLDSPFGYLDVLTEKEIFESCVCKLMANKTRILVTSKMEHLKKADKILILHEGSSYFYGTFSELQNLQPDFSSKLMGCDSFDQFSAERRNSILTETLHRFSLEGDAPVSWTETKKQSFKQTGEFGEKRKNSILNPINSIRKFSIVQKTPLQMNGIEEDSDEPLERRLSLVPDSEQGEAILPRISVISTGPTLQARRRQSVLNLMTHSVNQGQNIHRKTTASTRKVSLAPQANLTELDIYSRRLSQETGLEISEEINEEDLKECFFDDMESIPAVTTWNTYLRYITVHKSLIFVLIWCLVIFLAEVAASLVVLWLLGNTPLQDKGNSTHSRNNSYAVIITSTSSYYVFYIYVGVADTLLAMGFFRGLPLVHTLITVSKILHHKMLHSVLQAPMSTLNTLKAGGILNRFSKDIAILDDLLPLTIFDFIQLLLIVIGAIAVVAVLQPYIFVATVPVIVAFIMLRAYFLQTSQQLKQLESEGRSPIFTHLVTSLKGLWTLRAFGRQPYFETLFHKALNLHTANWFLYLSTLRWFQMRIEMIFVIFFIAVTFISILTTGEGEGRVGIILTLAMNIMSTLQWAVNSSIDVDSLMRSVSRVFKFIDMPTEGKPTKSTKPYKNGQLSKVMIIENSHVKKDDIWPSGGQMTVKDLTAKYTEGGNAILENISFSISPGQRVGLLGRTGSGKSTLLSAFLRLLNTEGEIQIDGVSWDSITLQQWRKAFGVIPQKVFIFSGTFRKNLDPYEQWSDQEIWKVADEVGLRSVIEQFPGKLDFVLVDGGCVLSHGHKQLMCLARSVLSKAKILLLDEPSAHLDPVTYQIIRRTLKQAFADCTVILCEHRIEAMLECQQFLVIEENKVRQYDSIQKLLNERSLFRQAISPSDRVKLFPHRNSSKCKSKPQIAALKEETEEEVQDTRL

| Compound | Emax [1] | EC50 [2] | Maximum % activity (with co-corrector) [3] | EC50 [4] |
| --- | --- | --- | --- | --- |
| COc1ncc(-c2ccccc2C)cc1CN[C@H]1[C@H](C(C)(C)C)[C@@H](C(=O)O)N(C(=O)C2CCCCC2)[C@H]1c1ccccc1 [II-342] | > 200% | < 1 µM | +++ (≥350) | < 1 µM |
| COc1ncc(-c2ccc(F)cc2C)cc1CN[C@H]1[C@H](C(C)(C)C)[C@@H](C(=O)O)N(C(=O)C2CCCCC2)[C@H]1c1ccccc1 [II-343] | 100 to 200% | < 1 µM | +++ (≥350) | < 1 µM |
| COc1ncc(-c2ccc(F)cc2F)cc1CN[C@H]1[C@H](C(C)(C)C)[C@@H](C(=O)O)N(C(=O)C2CCCCC2)[C@H]1c1ccccc1 [II-344] | 100 to 200% | 1 to 10 µM | +++ (≥350) | < 1 µM |
| COc1ncc(-c2cccnc2)cc1CN[C@H]1[C@H](C(C)(C)C)[C@@H](C(=O)O)N(C(=O)C2CCCCC2)[C@H]1c1ccccc1 [II-345] | < 100% | 1 to 10 µM | +++ (≥350) | 1 to 10 µM |
| COc1ncc(-c2cccc(F)c2F)cc1CN[C@H]1[C@H](C(C)(C)C)[C@@H](C(=O)O)N(C(=O)C2CCCCC2)[C@H]1c1ccccc1 [II-346] | > 200% | 1 to 10 µM | +++ (≥350) | 1 to 10 µM |
| COc1ncc(-c2ccc(C)cc2)cc1CN[C@H]1[C@H](C(C)(C)C)[C@@H](C(=O)O)N(C(=O)C2CCCCC2)[C@H]1c1ccccc1 [II-347] | 100 to 200% | < 1 µM | +++ (≥350) | < 1 µM |
| COc1ncc(-c2cccnc2C)cc1CN[C@H]1[C@H](C(C)(C)C)[C@@H](C(=O)O)N(C(=O)C2CCCCC2)[C@H]1c1ccccc1 [II-348] | < 100% | 1 to 10 µM | +++ (≥350) | 1 to 10 µM |
| COc1ncc(C2=CCOCC2)cc1CN[C@H]1[C@H](C(C)(C)C)[C@@H](C(=O)O)N(C(=O)C2CCCCC2)[C@H]1c1ccccc1 [II-349] | < 100% | 1 to 10 µM | +++ (≥350) | 1 to 10 µM |
| COc1ncc(C2=CCOC2)cc1CN[C@H]1[C@H](C(C)(C)C)[C@@H](C(=O)O)N(C(=O)C2CCCCC2)[C@H]1c1ccccc1 [II-350] | 100 to 200% | 1 to 10 µM | +++ (≥350) | 1 to 10 µM |
| COc1ncc(C(C)(C)C)cc1CN[C@H]1[C@H](C(C)(C)C)[C@@H](C(=O)O)N(C(=O)C2CCCCC2)[C@H]1c1ccccc1F [II-351] | 100 to 200% | < 1 µM | +++ (≥350) | < 1 µM |
| COc1ccc(C2CC2)cc1CN[C@H]1[C@H](C(C)(C)C)[C@@H](C(=O)O)N(C(=O)C2CCCCC2)[C@H]1c1ccccc1 [II-352] | > 200% | 1 to 10 µM | +++ (≥350) | < 1 µM |
| COc1ccc(C2(C(F)(F)F)CC2)cc1CN[C@H]1[C@H](C(C)(C)C)[C@@H](C(=O)O)N(C(=O)C2CCCCC2)[C@H]1c1ccccc1F [II-353] | > 200% | 1 to 10 µM | +++ (≥350) | < 1 µM |
| COc1ccc(C(C)(C)C)cc1CN[C@H]1[C@H](C(C)(C)C)[C@@H](C(=O)O)N(C(=O)c2cnn(-c3ccc(F)cc3)c2C)[C@H]1c1ccccc1 [II-354] | > 200% | < 1 µM | +++ (≥350) | < 1 µM |
| COc1ccc(C(C)(C)C)cc1CN[C@H]1[C@H](C(C)(C)C)[C@@H](C(=O)O)N(C(=O)c2cnn(C(C)(C)C)c2C#N)[C@H]1c1ccccc1 [II-355] | 100 to 200% | 1 to 10 µM | +++ (≥350) | < 1 µM |
| COc1ccc(C(C)(C)C)cc1CN[C@H]1[C@H](C(C)(C)C)[C@@H](C(=O)O)N(C(=O)c2cnn(-c3ccc(F)cc3F)c2C)[C@H]1c1ccccc1 [II-356] | > 200% | 1 to 10 µM | +++ (≥350) | < 1 µM |
| COc1ccc(-n2ncc(C(=O)N3[C@H](C(=O)O)[C@@H](C(C)(C)C)[C@H](NCc4cc(C(C)(C)C)ccc4OC)[C@@H]3c3ccccc3)c2C)cc1 [II-357] | > 200% | 1 to 10 µM | +++ (≥350) | < 1 µM |
| COc1ccc(C(C)(C)C)cc1CN[C@H]1[C@H](C(C)(C)C)[C@@H](C(=O)O)N(C(=O)c2cnn(C)c2-c2ccccc2)[C@H]1c1ccccc1 [II-358] | < 100% | 1 to 10 µM | +++ (≥350) | 1 to 10 µM |
| CCc1c(C(=O)N2[C@H](C(=O)O)[C@@H](C(C)(C)C)[C@H](NCc3cc(C(C)(C)C)ccc3OC)[C@@H]2c2ccccc2)c(C)nn1-c1ccc(F)cc1 [II-359] | > 200% | 1 to 10 µM | +++ (≥350) | 1 to 10 µM |
| COc1ccc(C(C)(C)C)cc1CN[C@H]1[C@H](C(C)(C)C)[C@@H](C(=O)O)N(C(=O)c2cnn(C(C)(C)C)c2C(F)(F)F)[C@H]1c1ccccc1 [II-360] | 100 to 200% | 1 to 10 µM | +++ (≥350) | < 1 µM |
| COc1ccc(C(C)(C)C)cc1CN[C@H]1[C@H](C(C)(C)C)[C@@H](C(=O)O)N(C(=O)c2cnn(-c3ccccc3)c2C)[C@H]1c1ccccc1 [II-361] | > 200% | 1 to 10 µM | +++ (≥350) | < 1 µM |
| CCn1nc(C)c(C(=O)N2[C@H](C(=O)O)[C@@H](C(C)(C)C)[C@H](NCc3cc(C(C)(C)C)ccc3OC)[C@@H]2c2ccccc2)c1C [II-362] | 100 to 200% | 1 to 10 µM | +++ (≥350) | 1 to 10 µM |
| COc1ccc(C(C)(C)C)cc1CN[C@H]1[C@H](C(C)(C)C)[C@@H](C(=O)O)N(C(=O)c2c(C)nn3c2CCCC3)[C@H]1c1ccccc1 [II-363] | 100 to 200% | 1 to 10 µM | +++ (≥350) | 1 to 10 µM |
| COc1ccc(C(C)(C)C)cc1CN[C@H]1[C@H](C(C)(C)C)[C@@H](C(=O)O)N(C(=O)c2cnn3c2CCCC3)[C@H]1c1ccccc1 [II-364] | 100 to 200% | 1 to 10 µM | +++ (≥350) | 1 to 10 µM |
| COc1ccc2c(c1)CCC2C(=O)N1[C@H](C(=O)O)[C@@H](C(C)(C)C)[C@H](NCc2cc(C(C)(C)C)ccc2OC)[C@@H]1c1ccccc1 (some centres unmarked) [II-365] | > 200% | < 1 µM | +++ (≥350) | < 1 µM |
| COc1ccc(C(C)(C)C)cc1CN[C@H]1[C@H](C(C)(C)C)[C@@H](C(=O)O)N(C(=O)[C@]2(C)CCc3c(OC)cccc32)[C@H]1c1ccccc1 [II-366] | 100 to 200% | 1 to 10 µM | +++ (≥350) | 1 to 10 µM |
| COc1ccc(C(C)(C)C)cc1CN[C@H]1[C@H](C(C)(C)C)[C@@H](C(=O)O)N(C(=O)C2(C)CCc3c(Cl)cccc32)[C@H]1c1ccccc1 (some centres unmarked) [II-367] | 100 to 200% | 1 to 10 µM | +++ (≥350) | 1 to 10 µM |
| COc1ccc(C(C)(C)C)cc1CN[C@H]1[C@H](C(C)(C)C)[C@@H](C(=O)O)N(C(=O)C2(C)CCc3ccccc32)[C@H]1c1ccccc1 (some centres unmarked) [II-368] | 100 to 200% | 1 to 10 µM | +++ (≥350) | 1 to 10 µM |
| COc1ccc(C(C)(C)C)cc1CN[C@H]1[C@H](C(C)(C)C)[C@@H](C(=O)O)N(C(=O)C2CCc3cc(Cl)ccc32)[C@H]1c1ccccc1 (some centres unmarked) [II-369] | > 200% | < 1 µM | +++ (≥350) | < 1 µM |
| COc1ccc(C(C)(C)C)cc1CN[C@H]1[C@H](C(C)(C)C)[C@@H](C(=O)O)N(C(=O)C2(c3ccccc3)COc3ccccc32)[C@H]1c1ccccc1 (some centres unmarked) [II-370] | < 100% | < 1 µM | +++ (≥350) | < 1 µM |
